Experimental findings from US11085022B2 (priority 2014, dated 2021) are described below.

Data set [1] relates to adjuvant arthritis model mice. The data set is described as follows: Osteoarthritis index score in adjuvant arthritis model mice. Type of data set: in vivo. The conditions noted are these: 15 mg/kg, 7 administrations; compared with the physiological saline group. How it is done: (§1) Adjuvant arthritis mouse model: The BCG vaccine was inactivated for 1 hr in a water bath at 80° C., and ground and mixed fully with autoclaved paraffin, to prepare a 10 mg/ml complete Freund adjuvant (CFA). 0.1 ml CFA was intracutaneously injected into the metatarsal in the right rear foot of the mice for inflammation induction.

A further data set has as its system ear swelling model mice. The data set is described as follows: Degree of ear swelling in ear swelling model mice. Type of data set: in vivo. The conditions noted are these: 15 mg/kg; compared with the physiological saline group; difference in the weight of the ears. As to the method: 48 inflammation model mice were randomized to 4 groups, each group having 12 animals. […] A control group having 12 mice with primary tumor was also set. […] All the animals were administered at days 1, 2, 3, 4, 6, 8, and 10 after surgery, and a total of 7 administrations were presented. Groups given with the neutrophil granulocytes of the same density and the physiological saline of the same volume were also set and used as a blank control. The mice were administrated for 3 consecutive days, and then sacrificed by cervical vertebra dislocation after the 3 administrations. Round specimens were punched from the same portion of the left and the right ears by a 7 mm punch and weighed on an analytical balance. The degree of ear swelling was indicated by the difference in the weight of the ears, and the anti-inflammatory effects of the drugs were compared, as shown in FIG. 15.

Data set [2] in a line: In-vivo distribution and ear targeting in ear swelling model mice. As to conditions: male, mouse, 15 mg/kg. How it is done: Ear swelling mouse model: Round pieces of filter paper that were 7 mm in diameter and soaked with dimethyl benzene were tightly attached for 15 s to the right ears of clean-grade male mice weighed 18-22 g.
72 mice with inflammation were randomized to 2 groups, each group having 36 animals. Before administration, the mice were fasted, but allowed to free access to water overnight. […] 0.167 h, 0.5 h, 1 h, 2 h, 4 h, 8 h, 12 h, 24 h, 48 h, 72 h, 96 h, and 120 h after administration, the eyeballs were removed to collect the blood, and then the mice were sacrificed. The heart, liver, spleen, kidney, and ear tissues were removed, washed with physiological saline, and weighed after the residual physiological saline was aspirated off with filter paper.
The tissue samples (heart, liver, spleen, kidney, and ear) from the mice with inflammation were weighed, placed in a blood collection tube, added with 2 mL physiological saline, and dispersed by a tissue homogenizer at a high speed, to give a tissue homogenate. 200 μL acetonitrile was added to 200 μL of each tissue homogenate, vortexed for 5 min, and centrifuged for 10 min at 10000×g.
The ear targeting efficiency (Te) refers to the ratio of AUCs of the same preparation in the ear and in other tissues. […]

A short description of data set [3]: In-vivo distribution and paw targeting in adjuvant arthritis model mice. The conditions noted are these: mouse; for concentration at 0.5 h / concentration at 1 h / concentration at 2 h / concentration at 4 h / concentration at 8 h / concentration at 12 h: 15 mg/kg, iv ibuprofen 15 mg/kg. How it is done:
as §1
72 mice with inflammation were randomized to 2 groups, each group having 36 animals. Before administration, the mice were fasted, but allowed to free access to water overnight. […] 0.167 h, 0.5 h, 1 h, 2 h, 4 h, 8 h, 12 h, 24 h, 48 h, 72 h, 96 h, and 120 h after administration, the eyeballs were removed to collect the blood, and then the mice were sacrificed. The heart, liver, spleen, kidney, and the metatarsal tissue in the right rear foot were removed, washed with physiological saline, and weighed after the residual physiological saline was aspirated off with filter paper.
The tissue samples (heart, liver, spleen, kidney, and metatarsal in the right rear foot) from the mice with inflammation were weighed, placed in a blood collection tube, added with 2 mL physiological saline, and dispersed by a tissue homogenizer at a high speed, to give a tissue homogenate. 200 μL acetonitrile was added to 200 μL of each tissue homogenate, vortexed for 5 min, and centrifuged for 10 min at 10000×g.
The paw targeting efficiency (Te) refers to the ratio of AUCs of the same preparation in the inflammatory site, that is, the paw, and in other tissues. […] The larger the Te is, the higher the selectivity of the preparation for the non-specific inflammatory site (the metatarsal in the right rear foot) will be, as compared with the selectivity for other comparative tissues.

The next data set deals with Streptococcus pneumoniae. The experiment in a line: Survival time of streptococcal pneumonia model mice. Format: in vivo. As to conditions: 10 mg/kg, 7 administrations. As to the method: 48 inflammation model mice were randomized to 4 groups, each group having 12 animals. […] All the animals were administered at days 1, 2, 3, 4, 6, 8, and 10 after surgery, and a total of 7 administrations were presented. Groups given with the neutrophil granulocytes of the same density and the physiological saline of the same volume were also set and used as a blank control.

As for `CC(C)Cc1ccc(C(C)C(=O)O)cc1` (centres unmarked) [ibuprofen], in data set [1], the “time at which the peak score occurs” value is given as “prolonged somewhat”. In addition, the “degree of ear swelling” value in the data set with ear swelling model mice is on record as “no obvious improvement”. The concentration at 1 h in data set [2] was found to be 3990 ng/g. The “organ(s) with the largest distribution” value in data set [3] is reported as “liver”. Further, in data set [3] (Distribution in Heart), the concentration at 0.5 h was found to be 6350 ng/g, the concentration at 1 h was 4240 ng/g, the concentration at 2 h amounted to 2990 ng/g and the concentration at 4 h worked out at 1870 ng/g. In data set [3] (Distribution in Heart), the concentration at 8 h was determined as 550 ng/g and the concentration at 12 h came out at 340 ng/g. Besides, in data set [3] (Distribution in Kidney), the concentration at 0.5 h was 2790 ng/g, the concentration at 1 h turned out to be 3900 ng/g, the concentration at 2 h worked out at 2680 ng/g and the concentration at 4 h came out at 1910 ng/g. For the same molecule, in data set [3] (Distribution in Kidney), the concentration at 8 h worked out at 620 ng/g and the concentration at 12 h was 450 ng/g. Further, in data set [3] (Distribution in Liver), the concentration at 0.5 h was found to be 11900 ng/g, the concentration at 1 h was 10000 ng/g, the concentration at 2 h was 8320 ng/g and the concentration at 4 h was found to be 7370 ng/g. For the same molecule, in data set [3] (Distribution in Liver), the concentration at 8 h is 6330 ng/g and the concentration at 12 h is 2000 ng/g. Further, in data set [3] (Distribution in Spleen), the concentration at 0.5 h was 6010 ng/g, the concentration at 1 h came out at 3990 ng/g, the concentration at 2 h was 2420 ng/g and the concentration at 4 h was 1980 ng/g. Further, in data set [3] (Distribution in Spleen), the concentration at 8 h was 1210 ng/g and the concentration at 12 h was 670 ng/g. In data set [3] (Distribution in paw), the concentration at 0.5 h was 430 ng/g, the concentration at 1 h came to 370 ng/g and the concentration at 2 h is 210 ng/g.

On to `C[C@H]1COc2c(N3CCN(C)CC3)c(F)cc3c(=O)c(C(=O)O)cn1c23` [levofloxacin], for which the survival time entry in the data set with Streptococcus pneumoniae is listed as “about 21 days”.
